In US20140256663A1, “Amphotericin Analogous Compounds and Pharmaceutical Compositions Containing Them” (CENTRO DE INVESTIGACION Y DE ESTUDIOS AVANZADOS DEL …, priority 2010, published 2014):

Key:
Candida kruzei = assay: Antifungal activity in vitro by flow cytometry, Candida kruzei; assay type: cell-based; details: 24 h at 37° C., read-out: CF50 Candida kruzei
Procedure: (§1) The antifungal activity of the polyene macrolide derivate of the present invention was determined by flow cytometry method earlier described (Pinto et al., J. Medical Microbiology, 2009; 58, 1454-1462; Pina-Vaz and Rodriguez, Methods Mol. Biol. 2010; 638:281-289). For the test two strains of Candida albicans (ATCC 10231 and 752) and Candida kruzei were used. A cellular suspension of 1×10^6 UFC/mL was used, which has sown in 96-well plates. […] As controls were used: untreated yeasts (control of living cells), yeasts exposed to UV radiation (arrest, inhibition of proliferation), and yeasts exposed at temperature of 100° C. (dead yeasts). Cells were collected by centrifugation at 10,000×g for 10 min, they were washed once in phosphate buffer. […] of propidium iodide 0.1 mg/mL were added to the cell suspension. It was incubated during 30 minutes at room temperature and protected from light. Finally, the samples were analyzed by flow cytometry (Becton-Dickinson Facsc Calibur, laser argon 480 nm). The intrinsic parameters and fluorescence in the FL2 channel (yellow/orange fluorescence) for FUN and channel FL3 (red fluorescence, filter 630 nm) for propidium iodide were acquired and registered on a logarithmic scale for a minimum of 7500 events per sample. For data analysis, the quadrants were adjusted in a plot of data lines of fluorescence intensity of samples. […] These quadrants were used to quantify the percentile of cells showing altered fluorescence compared to drug-free controls.

[1] = system: Candida albicans ATCC 10231; assay: Antifungal activity in vitro by flow cytometry, Candida albicans ATCC 10231; assay type: cell-based; details: ATCC10231, 24 h at 37° C., read-out: CF50 Candida albicans ATCC 10231
Procedure: as §1

[2] = Unit channel studies in chicken egg lecithin bilayers with cholesterol
Procedure: The activity is determined by the presence of the different channels formed by polyenes in the lipid bilayer (Cotero, et al., supra; Venegas, et al., supra). […] These values were determined by the technique of unit channel delineated above.
Unit channel studies were performed according to procedures described earlier (Cotero, et al., supra, Venegas, et al., supra). Required liposomal suspensions were prepared using lecithin with cholesterol or ergosterol. These suspensions were placed in an ultrasonic bath for 15 minutes to produce unilamellar vesicles. Subsequently, the suspension was placed in a 100 μl eppendorf and a lipid bilayer was formed on the tip of a micro-electrode. The unit channels of amphotericin and of the invented compounds were incorporated to this bilayer. The unit channel current of the various compounds was recorded with an electrometer, and then these records were analyzed by determining the activity of the compounds and the characteristics of the channels formed.
The activity is determined by the presence of the various channels formed by polyenes in the lipid bilayer (Cotero, et al., supra, Venegas, et al., supra). […] This conductance is the effect of all the channels present and was determined by the unit channel technique earlier described.

[3] = system: Saccharomyces cerevisae FY833(SC) cells; assay: Viability of Saccharomyces cerevisae FY833 (SC) cells at various concentrations; assay type: cell-based; details: FIG. 1, various concentrations
Procedure: All derivatives were tested for antibiotic activity in yeast cultures of S. cerevisiae.

human erythrocytes = assay: Hemolytic assay on human erythrocytes; assay type: cell-based; details: 1 hour
Procedure: The hemotoxicity of the polyene macrolide derivative of the present invention was determined by measuring the toxicity to human erythrocytes (values HE50) using a method established by Cybulska, et al. (Cybulska, B., Borowski, E. and Gary-Bobo, M. Relationship between ionophoric and hemolytic activities of perimycin A and vacidin A, two polyene macrolide antifungal antibiotics. Biochem Pharmacol. 1989; 38(11): 1755-1762). For determining the haematoxicity 2 mL blood were obtained and placed in a tube with EDTA. The number of erythrocytes was counted in a Neubauer chamber, and 1×10^7 cells/mL were placed in test tubes. The erythrocytes were resuspended in 450 μL of KCl 150 mM+Tris 3 mM buffer. The erythrocytes were treated with concentrations of 0.01, 0.1, 1, 10 y 100 μM and incubated in a water bath for 1 hour. They were then centrifuged at 1500 rpm for 15 seconds; 150 μL were taken from the supernatant and placed in 96-well plates; the optical density of each group was measured using a plate reader at a wavelength of 550 nm. We included one tube with the drug solvent (DMSO 1%) as internal control. We also included one tube only with erythrocytes and 500 μl of buffer KCl 150 mM+Tris 3 mM, which we consider as a negative control group and a tube with 500 μl of red cells and 35 mM NaCl (positive control).

[4] = system: Candida albicans ATCC 752; assay: Antifungal activity in vitro by flow cytometry, Candida albicans ATCC 752; assay type: cell-based; details: ATCC752, 24 h at 37° C., read-out: CF50 Candida albicans ATCC 752
Procedure: as §1

[5] = system: human renal cells 293Q (ATCC CLR-1573); assay: MTT cytotoxicity on human renal cells 293Q
Procedure: For cytotoxicity studies human kidney cells (ATCC No. CRL-1573) were used. The cells were cultured with Minimum Essential Medium (MEM) (GIBCO BRL), supplemented with 10% fetal bovine serum (FBS) (GIBCO BRL), 2 mM 1-glutamine (GIBCO BRL), 1.5 gL Na2HCO3 (Sigma Chemical Co), 0.1 mM nonessential amino acids (Sigma Chemical Co), and 1 mM sodium pyruvate (In vitro, S.A.). The technique of bromide of 3(4,5-dimethylthiazol-2-yl)-2,5-diphenyl tetrazolium (MTT) (Sigma Chemical Co) was applied; a technique which is based on the conversion of dye to an insoluble precipitate called formazan. This test is used as an indicator of mitochondrial function in living cells that measures the metabolic capacity in cells and serves as an indicator of cytotoxicity. […] (Mosman […], Immunol Methods, 65: 55-63). The cytoxicity test consisted of planting 10,000 cells per well in 96-well plates (Corning Incorporated Costar) in MEM and incubate them (Nuaire us autoflow CO2 water-jacketed incubator) during 24 h at 37° C. and 5% CO2. […] After incubation, cells were treated and incubated anew for 24 h. After this time the medium was aspirated carefully and replaced with 200 μL of fresh medium, and 50 μL of MTT was added for a total volume of 250 μl. They were then incubated for 4 hours in the above conditions. After that time the medium with MTT was carefully removed and 200 μL of DMSO and 25 μL of Sorensen buffer (0.1 M glycine+0.1 M NaCl at pH 10.5) were added to each well. The plate was then mixed until the formazan crystals dissolved, and it was finally read in a plate reader (Microplate Limaning System Ultramark, Biorad) at a wavelength of 550 nm.
For the tests, we used human renal ephythelial cells (293Q) (ATCC Catalog No. CRL-1573). The cells were cultured with Minimum Essential Medium (MEM) (GIBCO BRL) supplemented with 10% fetal bovine serum (FBS) (GIBCO BRL), 2 mM L-glutamine (GIBCO BRL), 1.5 g/L Na2HCO3 (Sigma Chemical Co), 0.1 mM nonessential amino acids (Sigma Chemical Co), and 1 mM sodium pyruvate (In vitro, S.A.). For cytoxicity tests, we applied the technique of bromide 3(4,5-dimethylthiazol-2-yl)-2,5-diphenyl tetrazolium (MTT) (Sigma Chemical Co), which is based on the conversion of the dye to an insoluble precipitate called formazan. This test is used as an indicator of mitochondrial function in living cells which measures the metabolic capacity in cells and serves as an indicator of cytotoxicity. (Wang, H. Z., Chang, C. H., Lin, C. P., Tsai, M. C). Using MTT viability assay to test the cytotoxicity of antibiotics and steroid to cultured porcine corneal endothelial cells. J. Ocul. Pharmacol. Ther. 1996; 12: 35-43). For the essay 10,000 cells were seeded per well in 96-well plates (Corning Incorporated Costar) in the medium already indicated and incubated for 24 h at 37° C. and 5% CO2. […] After incubation, cells were treated and incubated again for 24 h. The medium was carefully aspirated and replaced with 200 μl fresh medium, adding 50 μl MTT solution for a total volume of 250 μl. They were then incubated for 4 hours in the above conditions. The medium was carefully removed with MTT and 200 μl DMSO and 25 μl Sorense buffer (0.1 M glycine+0.1 M NaCl at pH 10.5) was added to each well. Then the plate was mixed until the formazan crystals dissolved; it was finally read in a reader plate (Microplate Limaning System Ultramark, Biorad) at a wavelength of 550 nm.

[6] = Recarrier K. thesis; cited from earlier work
[7] = 200 μM compound, 30 mol % cholesterol, 27° C.

Row | Compound | IC50 (Candida kruzei) | IC50 [1] | Opening probability, channel type I [2, 7] | Opening probability, channel type II [2, 7] | Opening probability, channel type III [2, 7] | Opening probability, channel type IV [2, 7] | Opening probability, channel type V [2, 7] | Opening probability, channel type VI [2, 7] | activity of transmembranal channels in the cholesterol membrane ([2]; in words, compared to AmB) | inhibitory capacity / potency on SC cells compared to AmB [3] | HE50 (Hemolysis 50) (human erythrocytes) | IC50 [4] | collateral cytotoxicity on human renal cells 293Q compared to AmB ([5]; FIG. 2, FIG. 8) | DT50 CitE50 ([5]; human renal cells 293Q, 24 h) | selectivity ergosterol versus cholesterol POPC membranes [6]
1 | CC1OC(O[C@H]2/C=C/C=C/C=C/C=C/C=C/C=C/C=C/C(C)[C@@H](O)C(C)C(C)OC(=O)C[C@H](O)C[C@H](O)CC[C@@H](O)[C@H](O)C[C@H](O)C[C@]3(O)CC(O)[C@@H](C(=O)N(C(C)C)C(C)C)C(C2)O3)C(O)C(N)C1O (stereo partly drawn) [A-3, N-diisopropylamide of AmB] | > 100 µM | > 50 µM | <1% | N.O. | N.O. | N.O. | N.O. | N.O. | more reduced presence of channels in membranes with cholesterol | low potency in fungal cells | 53 µM | > 100 µM | low cytoxicity | 180 µM | –
2 | C[C@@H]1[C@H](O)[C@@H](C)/C=C/C=C/CC/C=C/C=C/C=C/C=C/C(O[C@H]2O[C@H](C)[C@@H](O)[C@H](N)[C@@H]2O)CC2O[C@](O)(CC(O)C(O)CCC(O)CC(O)CC(O)CC(=O)O[C@H]1C)CC(O)C2C(=O)O (stereo partly drawn) [nystatin] | – | – | – | – | – | – | – | – | – | – | – | – | – | – | much higher selectivity
